# From US10695406B2, “Modulation of cellular stress using a B-cell oxidative and/or endoplasmic reticulum stress inhibitor and a targeting agent” (THE UNIVERSITY OF QUEENSLAND, priority 2014, dated 2020)
# Experiments:
# human pancreatic islets = assay: Oxidative stress (ROS, NO) in cultured human pancreatic islets; format: cell-based; details: 50 ng/mL, 30 min prior exposure, 2 hours culture
# Description: Human islets were recovered from organ donors and placed into overnight culture in DMEM with 2.8 mM glucose and 10% FCS. Islets were then washed and transferred into serum free DMEM for 6 h prior to experiments to assess induction of oxidative stress. Islets were then cultured for 2-24 hours in the presence of 50 ng/mL of IFNγ, IL-1β, IL-23 or IL-24, or the free fatty acid palmitate at 0.5 mM, with or without exposure to 50 ng/mL IL-22 beginning 30 min prior to the introduction of the stress inducing cytokines or lipids. To test whether endogenous IL-22 affects human islet physiology the islets were treated for 2-24 hours with an anti-IL-22R1 (receptor) antibody at 10 μg/mL. ROS and nitrite were measured using the DCFDA and Greiss assays as described above for murine islets, and quantitative RT-PCR used to assess gene expression.
# [1] = tested on: mice with high fat diet-induced obesity (HFDIO); assay: HFDIO Experiment 2: 22 weeks of diet, IL-22 for the last 30 days; format: in vivo, C57BL/6 male mice; details: for Body weight (% original) / Fasting blood glucose / Fasting serum insulin concentration / Fasting serum proinsulin concentration: HFDIO Experiment 2, 22 weeks on HFD
# From the text: All mice were housed in sterilized, filter-topped cages in a conventional clean facility. Six to eight week old C57BL/6 male mice were fed ad libitum on a high fat diet containing 46% of available energy as saturated fat, 34% carbohydrate, 20% protein (Speciality feeds, SF04-027). Or on normal chow containing less than 10% saturated fat (GOLDMIX, 126575). Cages of mice were randomly allocated to the experimental groups by random draw. Investigators were not blinded to treatment by there were no subjective assessments made.
# Total insulin and proinsulin were measured in supernatant from islet cultures or in serum from mice using commercially obtained ELISA kits from MILLIPORE and MERCODIA, respectively. The molar insulin concentration was determined by subtracting the molar proinsulin concentration from molar total insulin, and then the serum proinsulin:insulin ratio was calculated.
# From 18-22 weeks of diet, mice were treated (for 30 days) with 20 or 100 ng/g i.p. recombinant murine IL-22 twice weekly (R&D SYSTEMS) or 0.1 mg/mouse irrelevant isotype control antibody, sacrificed and sampled.
# Fasted i.p. glucose tolerance tests (2 g/kg glucose) and insulin tolerance tests (0.25 U/kg insulin; Humalog, Lilly) were performed at the times indicated in the Figure Legends. […]
# MIN6N8 murine β-cells = assay: ER stress (ERAI reporter of Xbp1-splicing / Xbp1 splicing) in MIN6N8 β-cells; format: cell-based
# Description: MIN6N8 cells are maintained in line with standard protocols. Cells are transfected with either the ERAI reporter plasmid (F-XBP1ΔDBD-Venus), or the ATF6-GFP plasmid (ADGENE), using LIPFECTAMINE 2000 according to the manufacturer's instructions.
# On induction of ER stress, splicing of […] mRNA by IRE1a results in the translation of Venus, but not an active form of XBP1. Fluorescence was measured (excitation: 485 nm; emission: 520 nm) using the POLARstar Omega plate reader and cells were treated 48 h after transfection. The results are normalized with Gapdh expression as fold of vehicle-treated control (Con) cells.
# Activation of ATF6 was assessed as follows: the area in pixels per square millimeter co-stained ATF6 and DAPI (blue and green), and total ATF6 staining (green) was determined in 5 fields of view for each section (n=6 for each condition) using IMAGEJ software version 1.45s. Data are presented as the percentage of ATF6 and DAPI co-fluorescence to the total ATF6 fluorescence. Phosphorylation of Ser-51 of eiF2 α was determined by an AlphaScreen assay as per the manufacturer's instructions (PERKIN-ELMER). The Griess reagent method was performed according to the manufacturer's instructions (MOLECULAR PROBES) to assess the intracellular levels of nitric oxide. 5-(and -6-)-carboxy-2,7-dichlorofluorescein diacetate (DCFDA) assay was used to determine the intracellular levels of H2O2 as previously described (Sakon et al., 2003). Cells were treated with glucose or recombinant cytokines at the concentrations indicated in the figure legends, or with 5 μM thapsigargin (SIGMA-ALDRICH) or 10 μg/mL tunicamycin (SIGMA-ALDRICH) or 0.1-0.5 mM Palmitate (SIGMA-ALDRICH) for the times indicated in the legends. ROS was […] using the dihydroethidium (DHE) fluorescent cell-permeable probe (SIGMA-ALDRICH). MIN6N8 cells plated at 2×10^6/mL were incubated with 3 μM DHE and subsequently treated with DMSO (control), 50 ng/mL IL-23 for 30 minutes±[…] IL-22 at the same time or 30 minutes prior to IL-23.
# To inhibit transcription factors the following specific inhibitors (and concentrations) were used:
# MIN6N8 cells were exposed to a panel of cytokines to determine the effect of each cytokine on ER stress. ER stress was measured using the above-described method. Specifically, the cells were exposed to either a 24 hour treatment of any one of […] glucose (hi glucose), 10 μM H2O2, 0.5 mM palmitic acid or 50 ng/mL cytokines; or a 6 hour treatment with 10 μg/mL tunicamycin or 5 μM thapsigargin.
# Experiments to assess ER and/or oxidative stress, and methods of qRT-PCT and/or quantifying gene expression were performed as described for Example 1. Xbp1 splicing is assessed by qRT-PCR, with normalization versus Gapdh, and expression presented as fold of vehicle-treated control cells.
substance,measurement,setting,value
IL-22: interleukin-22; recombinant murine IL-22 (R&D SYSTEMS) in the mouse experiments,"production of ROS and NO induced by IFN-γ, IL-1β, IL-23, IL-24 and palmitate",human pancreatic islets,protected human islets from the production of ROS and NO
same,decrease of serum proinsulin,[1]; 100 ng/g,97%
same,islet ER stress (Xbp1 splicing),[1]; 100 ng/g,Xbp1 splicing indistinguishable from normal chow islets
same,body weight during treatment,"[1]; 20 or 100 ng/g, last 30 days of 22-week HFD",progressively decreased
same,Body weight (% original),[1]; 20 ng/g,188 ± 13 % original
same,Fasting blood glucose,[1]; 20 ng/g,11.3 ± 0.5 mmol/L
same,Fasting serum insulin concentration,[1]; 20 ng/g,0.7 ± 0.4 ng/mL
same,Fasting serum proinsulin concentration,[1]; 20 ng/g,14.1 ± 2.9 pmol/L
same,Body weight (% original),[1]; 100 ng/g,189 ± 17 % original
same,Fasting blood glucose,[1]; 100 ng/g,10.6 ± 1.3 mmol/L
same,Fasting serum insulin concentration,[1]; 100 ng/g,0.5 ± 0.3 ng/mL
same,Fasting serum proinsulin concentration,[1]; 100 ng/g,4.7 ± 1.8 pmol/L
same,time until random fed blood glucose decreased to levels of normal chow fed mice,[1]; both doses (20 and 100 ng/g),≤ 7 days
same,insulin resistance in ITT,[1]; day 16 of therapy,no or modest improvement in insulin resistance
same,serum total insulin during IPGTT,[1]; day 25,complete suppression of fasting hyperinsulinemia and normalization of GSIS
same,glycemic control in IPGTT,[1]; day 25 of therapy,glycemic control indistinguishable from control non-obese mice
same,insulin resistance in ITT,"[1]; day 29, both doses",insulin resistance had decreased
same,serum proinsulin:insulin ratio,[1]; end of treatment,normalization of the serum proinsulin:insulin ratio
same,proinsulin secretion by islets ex vivo,"[1]; islets from HFD mice treated in vivo, glucose/GLP-1",reduced in a dose-dependent manner
same,islet expression of anti-oxidant genes and Nos2,[1]; islets from HFDIO mice treated in vivo,further increased expression of anti-oxidant genes and suppressed Nos2
same,insulin secretion in response to glucose by islets ex vivo,[1]; islets from obese mice treated for 30 days,correction of insulin hyper-secretion in response to glucose
same,"pathology in skin, intestine or liver",[1]; up to 100 μg/kg for up to 30 days,"no pathology was observed in the skin, intestine or liver"
same,UPR activation when ER stress is induced with thapsigargin,"MIN6N8 murine β-cells; 5 μM thapsigargin ± IL-22, 6 hours",increases UPR activation
same,ER stress induced with palmitic acid,"MIN6N8 murine β-cells; 0.1-0.5 mM palmitic acid ± IL-22, 24 hours",inhibits ER stress
same,lowest concentration with efficacy as suppressor of ER stress,MIN6N8 murine β-cells; MIN6 β-cells,around 5 ng/mL
same,UPR activation by the cytokine alone,MIN6N8 murine β-cells; no stressor,does not appear to activate the UPR
same,inhibition of ER stress initiated by cytokines or tunicamycin,MIN6N8 murine β-cells; pair-wise combinations of cytokines,inhibit ER stress
